Measurements from patent US11633335B2, “Skin cleansing composition” (KAO CORPORATION, priority 2017, dated 2023).

What was measured:
[1] = Keratotic plug detergency after washing with water: collapse state one minute after contact with water; parameters: species or system human; conditions: sample substituted with water; samples of Table 1
From the text: The penetration was relatively evaluated by criteria with 11 ratings starting from the rating 1 “the sample hardly penetrated into the keratotic plug” to the rating 11 “the sample penetrated to the center of the keratotic plug”. The collapsibility by the detergency against keratotic plug was relatively evaluated by criteria with 11 ratings starting from the rating 1 “almost no change is observed in the external appearance of the keratotic plug” to the rating 11 “peeling or separation is observed in the area from the surface layer to the central portion of the keratotic plug (the initial appearance of the keratotic plug is not retained)”. After one minute from the contact of the keratotic plugs with the sample, Kimwipes (registered trademark) was brought into contact with an edge of the cover glass to remove the sample under the cover glass. […] The results of the evaluation are shown in the column “Keratotic plug detergency (during washing with water)” in Table. The measurements were performed at 25° C.

[2] = Keratotic plug detergency (during cleansing): collapse state of keratotic plugs one minute after contact with the sample; parameters: species or system human; conditions: contact with the sample for 1 minute; samples of Table 1
Description: Keratotic plugs in the nasal region were removed with “Biore Nose Pack (manufactured by Kao Corporation)”, the resulting keratotic plugs on the pack were gently taken out with tweezers.
The resulting keratotic plugs were placed on a slide glass and were covered with a cover glass, and 0.05 mL of a sample was dropwise added to an edge of the cover glass. Consequently, the sample entered into the gap between the slide glass and the cover glass by capillary phenomenon and was brought into contact with the keratotic plugs. The contact of the keratotic plugs and the sample was recorded with a digital microscope (VHX-5000, manufactured by Keyence Corporation, magnification: 150×), and the penetration of the sample into the keratotic plugs and the collapse state of the keratotic plugs were evaluated after one minute from the contact of the keratotic plugs with the sample. The results of each evaluation are shown in the columns “Keratotic plug detergency (penetration)” and “Keratotic plug detergency (during cleansing)” in Tables. The measurements were performed at 25° C.
The penetration was relatively evaluated by criteria with 11 ratings starting from the rating 1 “the sample hardly penetrated into the keratotic plug” to the rating 11 “the sample penetrated to the center of the keratotic plug”. The collapsibility by the detergency against keratotic plug was relatively evaluated by criteria with 11 ratings starting from the rating 1 “almost no change is observed in the external appearance of the keratotic plug” to the rating 11 “peeling or separation is observed in the area from the surface layer to the central portion of the keratotic plug (the initial appearance of the keratotic plug is not retained)”.

[3] = Keratotic plug detergency (penetration): penetration of the sample into keratotic plugs one minute after contact, digital microscope; parameters: species or system human; conditions: contact with the sample for 1 minute; samples of Table 1
Description: Keratotic plugs in the nasal region were removed with “Biore Nose Pack (manufactured by Kao Corporation)”, the resulting keratotic plugs on the pack were gently taken out with tweezers. […] Consequently, the sample entered into the gap between the slide glass and the cover glass by capillary phenomenon and was brought into contact with the keratotic plugs. The contact of the keratotic plugs and the sample was recorded with a digital microscope (VHX-5000, manufactured by Keyence Corporation, magnification: 150×), and the penetration of the sample into the keratotic plugs and the collapse state of the keratotic plugs were evaluated after one minute from the contact of the keratotic plugs with the sample. The results of each evaluation are shown in the columns “Keratotic plug detergency (penetration)” and “Keratotic plug detergency (during cleansing)” in Tables. The measurements were performed at 25° C. The penetration was relatively evaluated by criteria with 11 ratings starting from the rating 1 “the sample hardly penetrated into the keratotic plug” to the rating 11 “the sample penetrated to the center of the keratotic plug”. The collapsibility by the detergency against keratotic plug was relatively evaluated by criteria with 11 ratings starting from the rating 1 “almost no change is observed in the external appearance of the keratotic plug” to the rating 11 “peeling or separation is observed in the area from the surface layer to the central portion of the keratotic plug (the initial appearance of the keratotic plug is not retained)”.

[4] = cited from earlier work
[5] = system: insoluble protein (seine protein); experiment: Evaluation of effect of suppressing protein aggregation (precipitation of insoluble protein); conditions: sample of Table 1
Description: Thirty milliliters of a sample and 0.06 g of an insoluble protein (seine protein) were placed in a 35-mL standard glass bottle, and the concentration of the insoluble protein was adjusted to 0.2 mass % (test sample). Separately, a standard sample was prepared by using water instead of the sample and adjusting the concentration of the insoluble protein to 0.2 mass %. Subsequently, the standard glass bottles were sufficiently shaken and stirred up and down (shake width: 15 cm, 20 times at a rate of 5 times for 3 seconds) in a thermostatic chamber of 25° C. and were left to stand for 3 minutes. The precipitation state of the insoluble protein was then visually verified, and the ratio of the amount of the precipitated standard sample to the amount of the precipitated test sample (the height of the precipitate in each standard glass bottle was measured as the precipitation amount), (precipitation amount of standard sample)/(precipitation amount of test sample), was calculated. A higher ratio indicates a higher effect of suppressing protein aggregation.

Compound: O=C([O-])O.[Na+] [sodium hydrogen carbonate]
- collapse of keratotic plugs during washing with water (in words) [1]: the collapse of keratotic plugs did not progress
- collapse of keratotic plugs in contact with the sample, assumption of cleansing (in words) [2]: the collapse of the keratotic plugs did not progress
- penetration of the sample into keratotic plugs (in words) [3]: the sample hardly penetrated into keratotic plugs

Compound: O=P([O-])([O-])O.[Na+].[Na+] [disodium hydrogen phosphate]
- collapse of keratotic plugs during washing with water (in words) [1]: the collapse of keratotic plugs did not progress
- collapse of keratotic plugs in contact with the sample, assumption of cleansing (in words) [2]: the collapse of the keratotic plugs did not progress
- penetration of the sample into keratotic plugs (in words) [3]: the sample hardly penetrated into keratotic plugs

Compound: NC(CO)(CO)CO [Tris, 2-amino-2-hydroxymethyl-1,3-propanediol]
- solubility in water (in words) [4]: readily dissolved in water

Compound: sodium polyoxyethylene (2) lauryl ether sulfate [POE (2) sodium lauryl sulfate]
- collapse of keratotic plugs in contact with the sample, assumption of cleansing (in words) [2]: the collapse of the keratotic plugs did not progress
- penetration of the sample into keratotic plugs (in words) [3]: hardly penetrated into the keratotic plugs
- action on proteins (in words) [5]: the action on proteins was strong to dissolve the proteins

Compound: CC(C)(N)CO [AMP, 2-amino-2-methyl-1-propanol]
- collapse of keratotic plugs during washing with water (in words) [1]: further accelerating the collapse of keratotic plugs
- solubility in water (in words) [4]: readily dissolved in water
- penetration of the sample into keratotic plugs (in words) [3]: the sample penetrated into keratotic plugs

Compound: O=P([O-])([O-])[O-].[Na+].[Na+].[Na+] [trisodium phosphate]
- collapse of keratotic plugs during washing with water (in words) [1]: the collapse of keratotic plugs did not progress
- collapse of keratotic plugs in contact with the sample, assumption of cleansing (in words) [2]: the collapse of the keratotic plugs did not progress
- penetration of the sample into keratotic plugs (in words) [3]: the sample hardly penetrated into keratotic plugs
